Consider 18 molecules from publication PMC10601436 (ACS Omega, 2023).

Peptide text beside a SMILES is read from it.

The target of this experiment is hDPP-IV (Homo sapiens, UniProt P27487). Description: DPP-IV inhibitory assay. In kind it is biochemical.
Chain of hDPP-IV (P27487 whole entry): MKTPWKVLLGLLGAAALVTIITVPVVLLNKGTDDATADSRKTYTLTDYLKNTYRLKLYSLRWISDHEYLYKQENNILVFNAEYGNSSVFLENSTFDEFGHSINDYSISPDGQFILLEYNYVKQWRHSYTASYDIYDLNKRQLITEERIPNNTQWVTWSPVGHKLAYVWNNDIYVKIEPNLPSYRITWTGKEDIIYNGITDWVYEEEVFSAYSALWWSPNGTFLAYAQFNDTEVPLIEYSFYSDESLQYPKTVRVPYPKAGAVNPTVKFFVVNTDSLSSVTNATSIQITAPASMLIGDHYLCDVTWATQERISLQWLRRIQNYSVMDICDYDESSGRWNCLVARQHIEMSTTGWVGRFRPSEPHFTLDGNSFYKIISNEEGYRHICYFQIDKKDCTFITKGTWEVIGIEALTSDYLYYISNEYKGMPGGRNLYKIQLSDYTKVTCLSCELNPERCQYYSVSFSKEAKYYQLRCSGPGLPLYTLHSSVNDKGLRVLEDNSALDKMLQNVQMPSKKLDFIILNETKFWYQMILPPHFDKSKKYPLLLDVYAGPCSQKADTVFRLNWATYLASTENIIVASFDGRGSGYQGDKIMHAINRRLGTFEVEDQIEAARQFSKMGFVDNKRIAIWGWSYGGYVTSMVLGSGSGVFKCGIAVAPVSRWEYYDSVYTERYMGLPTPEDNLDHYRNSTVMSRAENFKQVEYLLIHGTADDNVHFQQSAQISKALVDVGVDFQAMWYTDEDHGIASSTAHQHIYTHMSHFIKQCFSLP
Regarding `CC(C)[C@H](NC(=O)[C@@H](N)Cc1c[nH]c2ccccc12)C(=O)N[C@@H](Cc1c[nH]cn1)C(=O)O` [WVH] (H-Trp-Val-His-OH), it took 257 µM to reach half-maximal inhibition (IC50).
The figure for `CC(C)[C@H](NC(=O)[C@@H](N)Cc1c[nH]c2ccccc12)C(=O)N[C@@H](Cc1c[nH]c2ccccc12)C(=O)O` [WVW] (H-Trp-Val-Trp-OH) is 239 µM; for `C[C@H](NC(=O)[C@@H](N)Cc1c[nH]c2ccccc12)C(=O)N[C@@H](Cc1c[nH]cn1)C(=O)O` [WAH] (H-Trp-Ala-His-OH) it is 190 µM; for `CC(C)[C@H](NC(=O)[C@@H](N)Cc1c[nH]c2ccccc12)C(=O)N[C@@H](Cc1ccccc1)C(=O)O` [WVF] (H-Trp-Val-Phe-OH) it is 188 µM.
The result for `CC(C)C[C@H](NC(=O)[C@H](C)NC(=O)[C@@H](N)Cc1c[nH]c2ccccc12)C(=O)O` [WAL] (H-Trp-Ala-Leu-OH) reads 260 µM; that for `C[C@H](NC(=O)[C@H](CCCNC(=N)N)NC(=O)[C@@H](N)Cc1c[nH]c2ccccc12)C(=O)O` [WRA] (H-Trp-Arg-Ala-OH), 535 µM.
The figure for `C[C@H](NC(=O)[C@@H](N)Cc1c[nH]c2ccccc12)C(=O)N[C@@H](CCC(=O)O)C(=O)O` [WAE] (H-Trp-Ala-Glu-OH) is 462 µM; for `C[C@H](NC(=O)[C@@H]1CCCN1C(=O)[C@@H](N)Cc1c[nH]c2ccccc12)C(=O)O` [WPA] (H-Trp-Pro-Ala-OH) it is 206 µM.
For `N=C(N)NCCC[C@H](NC(=O)[C@@H]1CCCN1C(=O)[C@@H](N)Cc1c[nH]c2ccccc12)C(=O)O` [WPR] (H-Trp-Pro-Arg-OH), the IC50 turned out to be 209 µM.
The result for `CC(C)[C@H](N)C(=O)N1CCC[C@H]1C(=O)N[C@H](C(=O)N1CCC[C@H]1C(=O)N[C@@H](CS)C(=O)O)C(C)C` [VPVPC] (H-VPVPC-OH) reads 54.8 µM.
The figure for `CC(C)[C@H](NC(=O)[C@@H](N)Cc1c[nH]c2ccccc12)C(=O)N[C@@H](CC(=O)O)C(=O)O` [WVD] (H-Trp-Val-Asp-OH) is 343 µM; for `CC(C)[C@H](NC(=O)[C@@H](N)Cc1c[nH]c2ccccc12)C(=O)N[C@@H](C)C(=O)O` [WVA] (H-Trp-Val-Ala-OH) it is 341 µM.
The result for `N[C@@H](Cc1c[nH]c2ccccc12)C(=O)N1CCC[C@H]1C(=O)N[C@@H](Cc1c[nH]c2ccccc12)C(=O)O` [WPW] (H-Trp-Pro-Trp-OH) reads 183 µM; that for `N[C@@H](Cc1c[nH]c2ccccc12)C(=O)N1CCC[C@H]1C(=O)N1CCC[C@H]1C(=O)O` [WPP] (H-Trp-Pro-Pro-OH), 303 µM; that for `CC(C)[C@H](NC(=O)[C@@H](N)Cc1c[nH]c2ccccc12)C(=O)N[C@@H](CC(N)=O)C(=O)O` [WVN] (H-Trp-Val-Asn-OH), 373 µM.
`CSCC[C@H](NC(=O)[C@H](CCCNC(=N)N)NC(=O)[C@@H](N)Cc1c[nH]c2ccccc12)C(=O)O` [WRM] (H-Trp-Arg-Met-OH) yielded an IC50 of 897 µM.
On to `CC(C)[C@H](NC(=O)[C@@H](N)Cc1c[nH]c2ccccc12)C(=O)N[C@@H](CO)C(=O)O` [WVS] (H-Trp-Val-Ser-OH), for which the midpoint of inhibition, the IC50, lay at 247 µM.
In turn, `C[C@H](NC(=O)[C@@H](N)Cc1c[nH]c2ccccc12)C(=O)NCC(=O)O` [WAG] (H-Trp-Ala-Gly-OH) had an IC50 of 352 µM.

The IC50 is the point on the concentration scale where inhibition reaches its midpoint.
